Experimental data reported in a melting point compilation (Tetko et al.; mined from patent text by program, amines drawn as free bases though some values may be those of a salt).

melting point [°C]	Structure (SMILES)
91 to 93	CCOC(=O)COc1c(C(C)C)cc(C(O)(C(F)(F)F)C(F)(F)F)cc1C(C)C
176 to 177	Cc1nc2c(c3c1[nH]c1ccccc13)C(=O)CC(C)(C)C2
84 to 85	CC(C)c1nc(CN=[N+]=[N-])n(C)c1Sc1cc(Cl)cc(Cl)c1
129 to 131	Cc1ccc2oc(=O)c(C(=O)O)c(-c3ccccc3)c2c1
151 to 153	Nc1ccc(-c2ccc(N)cc2Br)c(Br)c1
186 to 187	COC(=O)c1ccc2nc(SCCN3CCN(CC(=O)Nc4c(C(C)C)cccc4C(C)C)CC3)oc2c1C(=O)OC
173 to 174	NC(=O)c1ccc(OCCNCC(O)COc2ccc(-c3csnn3)cc2)cc1 (centres undefined)
201 to 204	CC12CCC(=O)C=C1CCC1C2CCC2(C)C(n3cnc4ccccc43)=CCC12 (centres undefined)
200 to 203	COc1ccc(C)cc1NC(=O)Nc1ccc(N2CCN(C(=O)Nc3c(C)cccc3OC)CC2)cc1
179 to 180	NC(=S)Nc1ccc2ccccc2n1
62 to 63	Oc1cccc2c1OCO2
185 to 187	COC(=O)c1ccc2c(c1)c(Cc1ccc(C(=O)NS(=O)(=O)c3ccccc3C)cc1OC)cn2C
228 to 230	O=C1CCC(N2C(=O)c3ccc([N+](=O)[O-])cc3C2=O)C(=O)N1 (centres undefined)
137 to 138	CC(=O)N1CCN(c2nc(Cl)ccc2[N+](=O)[O-])CC1
102	CC(=O)Oc1cc2c(cc1OC(C)=O)OCC(c1ccccc1)C2 (centres undefined)
247 to 248	CC1(C)CCc2c(-c3ccoc3)nc3sc4c(NCc5cccnc5)ncnc4c3c2C1
103 to 105	CCCCc1nc(C(=O)C(C)(C)C)c(C#N)n1Cc1ccc(-c2ccccc2-c2nnnn2C(c2ccccc2)(c2ccccc2)c2ccccc2)cc1
141 to 144	CCc1nc2c(N)nc3ccccc3c2n1CCOCCNC(=O)Nc1ccccc1
208 to 209	CCCCS(=O)(=O)Nc1ccc(Oc2cccc3c(C)ccnc23)cc1
192 to 195	CC(C)(C)NC(=O)N1CCn2c(Cl)c(-c3cccc(C#N)c3)c(C(N)=O)c2C1
158 to 159	CCOC(=O)/C=C/c1c(-c2ccccc2)c2c3ccccc3cnn2c1C(C)C
244	CCOC(=O)c1ccc(NC(=O)NC2CN(C(=O)c3cccs3)c3ccc(C)cc3N(CC(=O)c3cccs3)C2=O)cc1 (centres undefined)

melting point [°C]	Structure (SMILES)
134 to 138	COc1ccccc1N1CCN(CCCNC(=O)c2cccc3c(=O)c(C)c(-c4cccc5ccccc45)oc23)CC1
> 300	Cc1cc2[nH]c(=O)c3cnc(O)cc3n2n1
100 to 102	O=Cc1cccc2ccc(-c3ccccc3)nc12
116	COC(=O)c1cc(-c2ccccc2)c(=O)n2c1-c1sccc1CC2
221 to 222	CCCc1nn(C)c2c(=O)[nH]c(-c3cc(S(=O)(=O)Cl)cc4c3OCC4)nc12
90 to 91	CCCCCCCCCc1ccc(C(=O)CC(=O)C(=O)O)cc1
44 to 45	COc1cc(C(O)(C(F)(F)F)C(F)(F)F)cc(C)c1O
126 to 128	COC(=O)C1=C(C)NC(c2c(F)cccc2F)=NC1c1ccc(F)cc1Cl (centres undefined)
138 to 143	CCCCCCCN1CCN(C(=O)C2CCC(c3cccnc3)N2)CC1 (centres undefined)
133 to 134	O=C1CCC(c2ccc(CCCCCNC(=O)c3cccnc3)cc2)=NN1
152 to 154	CC(C(=O)O)c1ccc2c(c1)C(=O)Cc1ccccc1O2 (centres undefined)
111	CC(C)(C(=O)c1ccc(Cl)cc1)n1cncn1
128 to 129	COc1ccc(C[C@]2(C)C(=O)O[C@@H](c3ccccc3)N2C(=O)c2ccccc2)cc1
154 to 156	COC(=O)c1ccc(NC(=O)C(=Cc2ccccc2)C(=O)C(C)C)cc1
299	CCCCn1c(=O)c2cc(OC)c(OC)cc2c2nnc3cc4c(cc3c21)OCO4
124 to 128	COCNC(=O)NC1CCCc2ccccc21 (centres undefined)
143 to 146	COC(=O)[C@H]1C[C@H](NS(C)(=O)=O)c2c(Cl)cc(Cl)cc2N1 (relative stereo)
123 to 125	CCn1c2ccccc2c2cc(N(Cc3ccccc3)Cc3ccccc3)ccc21
263 to 265	Oc1cc2c3ccc(O)c(O)c3n(Cc3c(Cl)cccc3Cl)c2cc1O
179 to 184	O=C(N[C@@H](Cc1ccccc1)[C@@H](O)[C@H](O)[C@H](Cc1ccccc1)NC(=O)c1ccccn1)c1ccccn1
194 to 202	CCN(CC)CC/C=C/c1cc2ncc(C#N)c(Nc3ccc(Sc4nccn4C)c(Cl)c3)c2cc1OC
76	CC(C)=NOCC(=O)O

melting point [°C]	Structure (SMILES)
242 to 244	CCCN[C@@H](Cc1ccc(OCCNC(=O)c2ccc(-c3ccccn3)cc2)cc1)C(=O)O
130 to 131	CC(Cc1ccc(F)cc1)(NC(=O)CN)c1ccc(F)cc1 (centres undefined)
252 to 254	O=C(O)C1CCC(Nc2nccc(-n3nnc4c(I)cccc43)n2)CC1 (centres undefined)
252	O=C1Nc2ccc(I)cc2C1=NNC(=O)c1ccc(Oc2ccc(CN3CCOCC3)cc2)cc1
111 to 113	COC(=O)c1cncn1C1c2cccc(Cl)c2CC1(C)C (centres undefined)
95 to 97	O=C(c1cccnc1)N1CCC(c2ccccc2C(F)(F)F)=N1
92 to 95	Cc1cc(C)c(S(=O)(=O)Nc2onc(C)c2Br)c(C)c1
139 to 141	Cc1ccccc1OCC(O)CNCCOc1ccc(C(N)=O)cn1 (centres undefined)
243 to 248	CC1Oc2ccc(CN3CCN(c4ccc(C(=O)O)cn4)CC3)cc2NC1=O (centres undefined)
32 to 34	CCOC(=O)[C@@H]1C[C@H](Br)CN1C(=O)OC(C)(C)C
168 to 169	CCOc1ccc(CCNC(=O)C(N)=O)cc1OCC
130 to 131	O=[N+]([O-])c1ccc(CN2CCC(C(c3ccccc3)c3ccccc3)CC2)cc1
198 to 200	O=C1c2ccccc2C(=O)N1c1c(F)cc(Cl)c2c1CCCO2
53 to 55	Cc1ccc(C(=O)OC(C)(C)C)cc1C=O
214 to 217	Cc1nc2c(N)nc3ccccc3c2n1CCOCCS(C)(=O)=O
87 to 89	OC1(C(c2ccccc2F)n2cccc2)CCN(Cc2ccccc2)C1 (centres undefined)
122 to 123	CN(C)CCN(C)c1ccc(Nc2cc(-c3cc(F)cc(N4CCc5c(sc6c5CCCC6)C4=O)c3CO)cn(C)c2=O)nc1
188	CC12CCC(C1)C1(C)Oc3ccc(C(=O)COc4ccc(C(=O)O)cc4)cc3C21C (centres undefined)
70	O=C(O)c1ccc(OCCNC(=O)C2Cc3ccccc3N2S(=O)(=O)c2ccc(-c3ccc(F)cc3OC(F)F)cc2)cc1 (centres undefined)
110	COc1ccc(C2=NO[C@]3(CCOC3)C2)cc1OC1CCCC1

Structure (SMILES)	melting point [°C]
CNC1CCc2[nH]c3ccc(OCc4ccccc4)cc3c2C1 (centres undefined)	120 to 121
CC1(C)CCC(C)(C)c2cc(-c3csc(C=CC(=O)O)c3)ccc21	182 to 185
Cc1cccc(-n2c(CF)nc3ccc([N+](=O)[O-])cc3c2=O)c1C	178 to 180
c1ccc2c(c1)Sc1ccccc1N2C1CN2CCC1CC2 (centres undefined)	160 to 162
O=C1CCN(C(=O)c2cccs2)CC1	81 to 83
